In PMC9705435, “Thiocarbazate building blocks enable the construction of azapeptides for rapid development of therapeutic candidates” (Nature Communications, 2022):
“Also recorded” adds a separate entry of the source. Numbered stars: 1 amine (or outer) side, 2 acyl side, 3 side chain; on linkers, the order of the positions; unused ones are H or OH. Square brackets hold non-standard residues; d marks the D form. Peptide text beside a SMILES is read from it. azaPhe = O=C(N(Cc1ccccc1)N[*:1])[*:2]; azaPro = O=C(N1CCCN1[*:1])[*:2]

Key:
[1] = test system: STZ-induced type 1 diabetic (T1D) mice; assay: Low-dose streptozotocin (STZ)-induced type 1 diabetes in mice; conditions: 500 µg/mouse/day i.p.; for severity of insulitis (insulitis scores): 2 weeks of treatment, H&E; for development of hyperglycemia: vs diabetic (saline) group
Method: Data are presented as means ± SD. […] Mice were simultaneously injected i.p. with saline, FSSE (500 µg/mouse/day), or azaF^1SSazaE^4 (500 µg/mouse/day). Blood glucose was measured on day 0, 7 and 14. Number of mice per group: saline n = 7; FSSE n = 8; azaF^1SSazaE^4 n = 8. Data are presented as mean values ± SEM. […] Serum samples from mice challenged with STZ were collected at day 14 and analyzed by ELISA. n = 7 mice per group. Data are presented as mean values ± SEM. […] Number of islets per group: saline n = 3, 13 islets; FSSE n = 2, 11 islets; azaF^1SSazaE^4 n = 3, 23 islets. P-value was calculated using two-sided Fisher’s exact test to compare islets without (score 0) and with (score 1-4) insulitis. Pancreas tissue was histologically analyzed from 2–3 animals per group. Representative hematoxylin and eosin (H&E) stained images of islets from each group are shown (right panel). Scale bars, 50 μm.
given free access to water and standard rodent chow and were acclimated to their environment for at least 1 week before experimentation.
4.5 STZ-induced type 1 diabetes in mice
Induction of Diabetes T1D was induced by administration of streptozotocin (STZ) (Sigma-Aldrich) (50 mg/kg dissolved in sodium citrate buffer, pH 4.5) to 6-8 weeks old C57Bl/6J mice intraperitoneally (i.p.) once each day for 5 consecutive days.
Mice were given water supplemented with 10% sucrose (Sigma-Aldrich) for six days to prevent sudden hypoglycemia during streptozotocin administration.
of FSSE, azaF1SSazaE4 or saline. Blood glucose with either FreeStyle Lite blood glucose meter (Abbot Diabetes Care, Inc.) or Bayer Contour blood glucose meter (Bayer HealthCare, LLC.) and body weight were measured once weekly. At the end of each study, mice were euthanized by CO2 asphyxiation. Blood and pancreas were collected for further analysis.
Pancreas were fixed in 10% formalin and processed for paraffin embedding (AML Laboratory and Genecopoeia). 7-μm-thick sections were stained with hematoxylin/eosin (Genecopoeia) and the degree of insulitis was eva luated microscopically. Islets were analyzed in multiple sections at 20×.

murine monocytes = assay: HMGB1-stimulated TNF release in murine splenic monocytes (ELISA); assay type: cell-based, mouse; conditions: 0.1, 1 or 10 µM peptide, HMGB1 1 µg/ml, 24 h
Source text: 4.2 HMGB1 protein preparation
For TNF ELISA experiments, […]

in vitro = conditions: male, C57BL/6J, mouse, blood
[2] = test system: mouse model of acetaminophen-induced liver toxicity; assay: Acetaminophen (APAP)-induced liver toxicity in mice; assay type: in vivo; conditions: vs scrambled peptide; for liver function enzymes and plasma cytokines / pro-inflammatory markers: APAP 200 mg/kg IP, 50 µg/mouse at 2 and 7 hours post-APAP, 24 h; for protection / survival in APAP toxicity model: APAP 400 mg/kg, 50 µg/mouse IP at 2 h post-APAP, then once a day for 5 days
rats = assay: Acute blood pressure monitoring (mean arterial pressure) in anesthetized rats; assay type: in vivo, rat; conditions: Icatibant 10 µg/kg IV-bolus 15 min before azaF^8-BK
Method: Each grey data point represents one animal. Mean values (with SEM where indicated) for animals given experimental agent were compared with vehicle.
Next, in vivo bioactivity of aza-BK analogues was evaluated in an acute blood pressure monitoring study in rats[61] based on the known blood pressure lowering effect of BK. Briefly, rats were anesthetized and changes in mean arterial blood pressure (MAP) were recorded during intravenous (IV) injection of test agents (6.4 µg/kg) (Fig. 4b).
Statistical analysis. […] Data are presented as means ± SEM unless otherwise stated. Differences between treatment groups were determined by 2-tailed Unpaired t-test; p value less than 0.05 was considered statistically significant. […] P values less than 0.05 were considered statistically significant.
5.2 Surgical procedure and physiological blood pressure measurement
Adult male Sprague Dawley rats (n = 22, weight: 300 – 350 gm; age: 8 – 10 weeks) from Charles River Labs were used under the approval of Institutional Animal Care and Use Committee at The Feinstein Institutes for Medical Research
Rats were anesthetized using isoflurane at 1-3 %. Body temperature was maintained at 37°C using a heating pad. […] All physiological signals were registered using PowerLab, BioAmp and BridgeAmp (ADInstruments, CO, USA), which were recorded on a computer using LabChart v8 software (ADInstruments, CO, USA). […]

[3] = molecular target: T1, Human B2 (h) receptor (B2R) (Homo sapiens, UniProt P30411); assay: Human B2 (h) (agonist radioligand) receptor binding assay, [3H]bradykinin displacement
T1 construct: host or cells: CHO cells
T1 sequence (P30411 1-391): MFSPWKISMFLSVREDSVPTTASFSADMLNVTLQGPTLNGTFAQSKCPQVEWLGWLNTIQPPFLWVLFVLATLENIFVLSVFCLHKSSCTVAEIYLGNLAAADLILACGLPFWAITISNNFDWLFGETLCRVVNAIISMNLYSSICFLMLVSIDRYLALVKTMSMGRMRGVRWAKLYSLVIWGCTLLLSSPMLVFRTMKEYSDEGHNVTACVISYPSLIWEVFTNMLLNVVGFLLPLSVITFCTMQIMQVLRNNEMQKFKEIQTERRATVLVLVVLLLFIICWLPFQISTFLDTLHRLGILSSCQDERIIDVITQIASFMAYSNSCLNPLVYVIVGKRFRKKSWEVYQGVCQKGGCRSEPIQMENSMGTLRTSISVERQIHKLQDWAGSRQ
Source text: The data was collected by CRO Eurofins Cerep (France) and the result is attached as an additional data file. B2R radioligand agonist binding displacement assay for determination of IC-50.
Test compounds (FI-U / [azaP2, azaF8-BK (70), FI-2V / azaF8-BK (68), and FI-8G / azaP2-BK (63)) were supplied to Eurofins in a blinded manner and run at five concentrations to determine the IC-50’s. Standard company control test compounds were used for assay validation. Experimental assays achieved inhibition of more than 50% and were considered to represent significant effects of the test compounds.
(B2(h)) was used as the agonist for B2R receptor binding. The results are expressed as a percent of control specific binding (measured specific binding /control specific binding)*100, and as a percent inhibition of control specific binding (100 minus (measured specific binding/ control specific binding)*100) obtained in the presence of the test compounds. The IC50 values (concentration causing a half-maximal inhibition of control specific binding) and Hill coefficients (nH) were determined by non-linear regression analysis of the competition curves generated with mean replicate values using Hill equation curve fitting Y=D+[ A-D / 1+(C/C50) nH] where Y = specific binding, A = left asymptote of the curve, D = right asymptote of the curve, C = compound concentration, C50 = IC50, and nH = slope factor. This analysis was performed using software developed at Cerep (Hill software) and validated by comparison with data generated by the commercial software SigmaPlot® 4.0 for […]
The inhibition constants (Ki) were calculated using the Cheng Prusoff equation. Ki=IC50/(1+L/Kd) where L = concentration of radioligand in the assay, and Kd = affinity of the radioligand for the receptor. A scatchard plot is used to determine the Kd. […]
9.1. Experimental Conditions
9.1.1. In Vitro Pharmacology: Binding Assays
Assay Source Ligand Conc. Kd Non Specific Incubation Detection Bibl.
(agonist recombinant (1 µM) RT counting
9.2. Analysis and expression of results
9.2.1. In Vitro Pharmacology: Binding Assays
The results are expressed as a percent of control specific binding measured specific binding *100 […]
and as a percent inhibition of control specific binding
100-( measured specific binding *100) […]
obtained in the presence of the test compounds.
The IC50 values (concentration causing a half-maximal inhibition of control specific binding) and Hill coefficients (nH) were determined by non-linear regression analysis of the competition curves generated with mean replicate values using Hill equation […]
where Y = specific binding, A = left asymptote of the curve, D = right asymptote of the curve, C = compound concentration, C50 = IC50, and nH = slope factor. This analysis was performed using software developed at Cerep (Hill software) and validated by […]
The inhibition constants (Ki ) were calculated using the Cheng Prusoff equation where L = concentration of radioligand in the assay, and KD = affinity of the radioligand for the receptor. A scatchard plot is used to […]

3T3 cells = molecular target: T2, 3T3 cells (Mus musculus, UniProt P32299); assay: PGE2 induction in 3T3 fibroblasts (ELISA); assay type: cell-based; conditions: 7 min, serum-free medium
T2 sequence (P32299 1-392): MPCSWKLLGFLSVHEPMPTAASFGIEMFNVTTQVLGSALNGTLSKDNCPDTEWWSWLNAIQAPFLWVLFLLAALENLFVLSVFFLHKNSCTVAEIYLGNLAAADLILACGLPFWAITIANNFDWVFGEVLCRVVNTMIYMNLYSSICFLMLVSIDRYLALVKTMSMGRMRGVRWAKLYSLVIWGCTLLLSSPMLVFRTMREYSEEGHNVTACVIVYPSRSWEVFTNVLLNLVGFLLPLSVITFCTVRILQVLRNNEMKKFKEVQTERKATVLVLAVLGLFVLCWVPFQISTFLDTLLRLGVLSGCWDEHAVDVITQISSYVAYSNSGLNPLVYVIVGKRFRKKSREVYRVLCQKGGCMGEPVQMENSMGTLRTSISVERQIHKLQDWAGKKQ
Method: Subconfluent monolayers of 3T3 cells were incubated with test compounds for 7 min in serum-free medium and supernatants were collected and analyzed for PGE2 by ELISA.
5.1 In vitro PGE2 induction
3T3 Swiss Albino cell line (ATCC CCL-92) was purchased from American Type Culture Collection (Manassas, VA).
Following trypsinization, cells were washed and resuspended in DMEM-Complete at a cell density of 0.03 x 10^6 cells per ml. Cells were seeded into 96 -well flat-bottomed culture plates (6 x 10^3 cells per well in 200 µl). After one day of culture, 3T3 cell monolayers were washed two times in pre-warmed DMEM supplemented with 20 mM HEPES (DMEM-HEPES) and DMEM-HEPES
supernatants were collected and immediately frozen at -20°C for future PGE2 analyses. PGE2 levels in supernatants were determined using PGE2 ELISA kit (Enzo Life Sciences, Farmingdale, NY) following manufacturer’s instructions. Samples were assayed in quadruplicate. PGE2 ELISA data were analyzed using GraphPad Prism Version 9.3.1.

In the case of `NC(=O)N(CCC(=O)O)NC(=O)[C@H](CO)NC(=O)[C@H](CO)NC(=O)N(N)Cc1ccccc1` [Compound 51, azaF^1SSazaE^4-NH2], the “diabetes-induced body weight loss” value [1] is reported as “hindered diabetes-induced body weight loss”, the “severity of insulitis (insulitis scores)” value [1] is reported as “much lower than that of FSSE-treated mice; also recorded: reduced” and the “level of blood glucose” value ([1]; day 7 and 14) is reported as “significantly attenuated”. The “serum levels of insulin” value ([1]; day 14, ELISA) was “successfully restored”, the development of hyperglycemia [1] was “delayed the development of hyperglycemia” and the “longer half-life than native FSSE peptide” value (mouse whole blood) was > 60 fold. The “HMGB1-induced TNF production” value (murine monocytes) was “dose-dependently reduced”, the half-life (in vitro) was > 120 min and the “liver function enzymes and plasma cytokines / pro-inflammatory markers” value [2] was “improved liver function enzymes as well as plasma cytokines”. For the same compound, the “liver function enzymes and plasma cytokines / pro-inflammatory markers” value ([2]; listed as azaF1SSazaE4) was “reduced APAP-induced pro-inflammatory markers and serum liver enzymes”, the “protection / survival in APAP toxicity model” value [2] was “protective” and the “protection / survival in APAP toxicity model” value ([2]; listed as azaF1SSazaE4) was “improves survival”.

For `NC(=O)[C@H](CCC(=O)O)NC(=O)[C@H](CO)NC(=O)[C@H](CO)NC(=O)[C@@H](N)Cc1ccccc1` [FSSE-NH2 (P5779), FSSE-NH2, reference compound], the “severity of insulitis (insulitis scores)” value [1] was “reduced”, the development of hyperglycemia [1] was “no significant effect” and the “Ex-vivo stability t 1/2” value (male, C57BL/6J, mouse, blood) was 2.0 ± 0.06 min. The “HMGB1-induced TNF production” value (murine monocytes) was “dose-dependently reduced” and the half-life (in vitro; Ex-vivo stability t 1/2) was < 2 min.

With icatibant the “effect of pretreatment on azaF^8-BK (68)-induced lowering of blood pressure” value (rats) was “partial inhibition”.

For `N=C(N)NCCC[C@H](NC(=O)N(Cc1ccccc1)NC(=O)[C@@H]1CCCN1C(=O)[C@H](CO)NC(=O)[C@H](Cc1ccccc1)NC(=O)CNC(=O)[C@@H]1CCCN1C(=O)N1CCCN1C(=O)[C@@H](N)CCCNC(=N)N)C(=O)O` [Compound 70, RazaP^2PGFSPazaF^8R] (H-R[azaPro]PGFSP[azaPhe]R-OH; N-terminus and C-terminus assumed), the IC50 [3] was 11 nM, the Ki [3] was 5.6 nM and the “% Inhibition of Control Specific Binding, 1st” value (“% Inhibition … 1st” below) ([3]; 1.0E-06 M) was 97.1%. The “% Inhibition of Control Specific Binding, 2nd” value (“% Inhibition … 2nd” below) ([3]; 1.0E-06 M) was 99.5%, the “% Inhibition of Control Specific Binding, Mean” value (“% Inhibition … Mean” below) ([3]; 1.0E-06 M) was 98.3% and the “% Inhibition … 1st” value ([3]; 1.0E-07 M) was 84.7%. For the same compound, the “% Inhibition … 2nd” value ([3]; 1.0E-07 M) was 91.4%, the “% Inhibition … Mean” value ([3]; 1.0E-07 M) was 88.1% and the “% Inhibition … 1st” value ([3]; 1.0E-08 M) was 36.3%. For the same compound, the “% Inhibition … 2nd” value ([3]; 1.0E-08 M) was 48.4%, the “% Inhibition … Mean” value ([3]; 1.0E-08 M) was 42.3% and the “% Inhibition … 1st” value ([3]; 1.0E-09 M) was -9.2%. For the same compound, the “% Inhibition … 2nd” value ([3]; 1.0E-09 M) was 8.0%, the “% Inhibition … Mean” value ([3]; 1.0E-09 M) was -0.6% and the “% Inhibition … 1st” value ([3]; 3.0E-08 M) was 67.6%. For the same compound, the “% Inhibition … 2nd” value ([3]; 3.0E-08 M) was 73.7%, the “% Inhibition … Mean” value ([3]; 3.0E-08 M) was 70.6% and the EC50 (3T3 cells) was 80.6 nM. It also gave a half-life (in vitro) of 29.2 ± 3.8 min.

With `N=C(N)NCCC[C@H](NC(=O)N(Cc1ccccc1)NC(=O)[C@@H]1CCCN1C(=O)[C@H](CO)NC(=O)[C@H](Cc1ccccc1)NC(=O)CNC(=O)[C@@H]1CCCN1C(=O)[C@@H]1CCCN1C(=O)[C@@H](N)CCCNC(=N)N)C(=O)O` [Compound 68, RPPGFSPazaF^8R] (H-RPPGFSP[azaPhe]R-OH; N-terminus and C-terminus assumed) the IC50 [3] was 8.8 nM, the Ki [3] was 4.1 nM and the “% Inhibition … 1st” value ([3]; 1.0E-06 M) was 99.7%. The “% Inhibition … 2nd” value ([3]; 1.0E-06 M) was 100.1%, the “% Inhibition … Mean” value ([3]; 1.0E-06 M) was 99.9% and the “% Inhibition … 1st” value ([3]; 1.0E-07 M) was 98.0%. For the same compound, the “% Inhibition … 2nd” value ([3]; 1.0E-07 M) was 95.2%, the “% Inhibition … Mean” value ([3]; 1.0E-07 M) was 96.6% and the “% Inhibition … 1st” value ([3]; 1.0E-08 M) was 61.5%. For the same compound, the “% Inhibition … 2nd” value ([3]; 1.0E-08 M) was 66.7%, the “% Inhibition … Mean” value ([3]; 1.0E-08 M) was 64.1% and the “% Inhibition … 1st” value ([3]; 1.0E-09 M) was 8.0%. For the same compound, the “% Inhibition … 2nd” value ([3]; 1.0E-09 M) was 2.9%, the “% Inhibition … Mean” value ([3]; 1.0E-09 M) was 5.4% and the “% Inhibition … 1st” value ([3]; 3.0E-08 M) was 72.4%. For the same compound, the “% Inhibition … 2nd” value ([3]; 3.0E-08 M) was 64.6%, the “% Inhibition … Mean” value ([3]; 3.0E-08 M) was 68.5% and the EC50 (3T3 cells) was 99.6 nM. It also gave a half-life (in vitro) of 39.3 ± 2.5 min.
